Measurements from US9376725B1, “Methods of screening for compounds for treating muscular dystrophy using human ALPHA7 integrin mRNA translation regulation” (PTC Therapeutics, Inc., priority 2007, dated 2016).

What was measured:
mIGF1 mRNA = assay: fLuc reporter gene assay, mIGF1 5′-UTR and 3′-UTR stable cell line; assay type: cell-based, human; conditions: 7.5 μM test concentration, 24 hours, vs 0.5% DMSO, luciferase luminescence, stable 293H or RD cells
Description: (§1) As shown in the following examples, compounds that modulate the expression of proteins (e.g., mIGF1, ITGA7, or UTRN) have been identified or validated and have the potential to treat MD, or a form thereof. Stable muscle (RD) or kidney (293H) cell lines expressing the firefly luciferase (fLuc) reporter gene flanked by the 5′-UTR and 3′-UTR of mIGF1, ITGA7, or UTRN mRNA were constructed and used to identify or validate compounds able to specifically increase expression of a reporter gene via nucleic acid constructs comprising at least the 5′-UTR and 3′-UTR of mIGF1, ITGA7 or UTRN and to increase expression of endogenous mIGF1, ITGA7 or UTRN protein.
(§2) A high-level expression vector, pcDNA™3.1/Hygro (Invitrogen Corp., Carlsbad, Calif.) was used for preparing the constructs comprising the luciferase gene flanked by any of the 5′-UTR and 3′-UTR, the 5′-UTR or the 3′-UTR of mIGF1, ITGA7, and UTRN mRNA. In a pcDNA™3.1/Hygro vector, the UTRs and restriction sites normally associated with cloning and/or expressing a gene of interest or reporter gene were removed or replaced. For each construct containing 5′ UTR sequences, the 5′ UTR sequences with a start codon were cloned into the vector using the appropriate restriction sites.
(§3) Stable 293H and RD cell lines containing the firefly luciferase (fLuc) gene flanked by mIGF1, ITGA7, or UTRN 5′-UTR and 3′-UTR were cultured in DMEM medium supplemented with 10% FBS and 200 μg/mL hygromycin in Fisher T175 flasks. The cells were passaged every 4 days at 1:10 dilution. Cultures were kept in a 37° C. and 5% CO2 incubator. The cells were scaled-up three days before performing the assay. Two confluent T175 flasks were split into twenty T175 flasks (1:10 dilution). Cells were harvested from each confluent flask by removing all of the media and adding 4 mL of warmed trypsin to dislodge the cells. After the cells were dislodged, 16 mL of selective media was added for a final volume of 20 mL. The cells were expanded by adding 2 mL of the harvested cells into ten new T175 flasks plus 25 ml, of selective media. The twenty new flasks were placed into the 37° C., 5% CO2 incubator. On the day the assay was performed, the media was removed from the flasks and 3 mL of warmed trypsin was added to dislodge the cells. After the cells were dislodged, 10 mL of nonselective media was added to the flask. This was repeated for all twenty flasks and combined into one flask. 100 μL of the above cell culture plus 100 μL of Trypan Blue stain was counted on a hemocytometer. 38 μL of cells (approximately 263 cells/4) were plated in the presence of 2 μL of a compound to be tested (at final concentration of 7.5 μM with 0.5% DMSO).
(§4) The firefly luciferase substrate used was Luc Lite Plus Packard #6016969. Luciferase activity was immediately assayed using a ViewLux Imaging system (Perkin Elmer).
(§5) The screening assay was performed by preparing plates containing test compounds and controls, including wells that contained only vehicle or a high inhibitor concentration and wells that provided an 8-point dose response curve of puromycin, a non-specific standard control inhibitor. The cells were grown overnight in the presence of compounds or controls at 37° C. in 5% CO2. Compounds were screened once for percent inhibition at a 7.5 μM test concentration. After 24 hours, the amount of luminescence was determined using a ViewLux Imaging system (Perkin Elmer).
(§6) The results for compounds shown in the following tables indicate that the compounds of the present invention enhance post-transcriptional expression of a nucleic acid construct comprising a reporter gene operably linked to any of the 5′-UTR and 3′-UTR, the 5′-UTR or the 3′-UTR of the target mIGF1 mRNA (Table 1), ITGA7 mRNA (Table 2), or UTRN mRNA (Table 3). […]

ITGA7 mRNA = assay: fLuc reporter gene assay, ITGA7 5′-UTR and 3′-UTR stable cell line; assay type: cell-based, human; conditions: 7.5 μM test concentration, 24 hours, vs 0.5% DMSO, luciferase luminescence, stable 293H or RD cells
Description: as §1, §2, §3, §4, §5, §6

UTRN mRNA = assay: fLuc reporter gene assay, UTRN 5′-UTR and 3′-UTR stable cell line; assay type: cell-based, human; conditions: 7.5 μM test concentration, 24 hours, vs 0.5% DMSO, luciferase luminescence, stable 293H or RD cells
Description: as §1, §2, §3, §4, §5, §6

[1] = CellTiter-Glo cytotoxicity assay, U937; assay type: cell-based; conditions: human, U937 cells (monocyte cell line); U937, relatively sensitive cell line
Description: To evaluate cytotoxicity of the compounds in the 293H and RD cell lines, the CellTiter-Glo assay (Promega) is utilized. CellTiter-Glo determines the number of viable cells in culture based on quantification of the ATP present, which signals the presence of metabolically active cells. A reduction in cellular ATP is indicative of a cytotoxic or cytostatic effect. Doxorubicin, a known cytotoxic compound, is used to address the sensitivity of the tested cell line. For relatively sensitive cell lines, such as U937 (a human monocyte cell line), the CC50 of doxorubicin ranges from 4 to 10 nM.

[2] = CellTiter-Glo cytotoxicity assay, Huh7; assay type: cell-based; conditions: human, Huh7 cells (hepatoblastoma cell line); Huh7, intermediate level of sensitivity
dystrophin [3] = conditions: mouse model; results could not be replicated; cited from earlier work
dystrophin [4] = conditions: human clinical trials; cited from earlier work

Molecule	mIGF1, fold increase compared to negative control (mIGF1 mRNA)	ITGa7, fold increase compared to negative control (ITGA7 mRNA)	UTRN, fold increase compared to negative control (UTRN mRNA)	CC50 [1]	CC50 [2]	increase in dystrophin levels (dystrophin [3])	increase in expression of dystrophin (dystrophin [4])
CCCc1cc(Cl)n2c(nc3ccccc32)c1C#N [Cpd 3, 1-chloro-3-propyl-benzoimidazo[1,2-a]pyridine-4-carbonitrile]	* (one star indicates less than one-fold increase in target mRNA)	* (one star indicates less than one-fold increase in target mRNA)	** (two stars indicate a greater than one-fold and up to two-fold increase in target mRNA)	–	–	–	–
CCOc1ccc(C(=O)NC(=S)Nc2ccc(-c3nc4ccccc4s3)cc2)cc1[N+](=O)[O-] [Cpd 5, N-(4-(benzo[d]thiazol-2-yl)phenylcarbamothioyl)-4-ethoxy-3-nitrobenzamide]	** (two stars indicate a greater than one-fold and up to two-fold increase in target mRNA)	*** (three stars indicate a greater than two-fold and up to three-fold increase in target mRNA)	*** (three stars indicate a greater than two-fold and up to three-fold increase in target mRNA)	–	–	–	–
CCCCOc1ccc(C(=O)NC(=S)Nc2cc(-c3nc4ccccc4s3)ccc2C)cc1 [Cpd 7, N-(5-(benzo[d]thiazol-2-yl)-2-methylphenylcarbamothioyl)-4-butoxybenzamide]	*** (three stars indicate a greater than two-fold and up to three-fold increase in target mRNA)	**** (four stars indicate a greater than three-fold and up to four-fold increase in target mRNA)	** (two stars indicate a greater than one-fold and up to two-fold increase in target mRNA)	–	–	–	–
N#CC1=C(N)Oc2c(ccc3ccccc23)C1c1cccc(C(F)(F)F)c1 (stereo not shown) [Cpd 6, 2-amino-4-(3-(trifluoromethyl)phenyl)-4H-benzo[h]chromene-3-carbonitrile]	* (one star indicates less than one-fold increase in target mRNA)	* (one star indicates less than one-fold increase in target mRNA)	** (two stars indicate a greater than one-fold and up to two-fold increase in target mRNA)	–	–	–	–
CN(C)c1ccc(-c2nc3cc([N+](=O)[O-])ccc3[nH]2)cc1 [Cpd 2, N,N-dimethyl-4-(5-nitro-1H-benzo[d]imidazol-2-yl)aniline]	** (two stars indicate a greater than one-fold and up to two-fold increase in target mRNA)	**** (four stars indicate a greater than three-fold and up to four-fold increase in target mRNA)	*** (three stars indicate a greater than two-fold and up to three-fold increase in target mRNA)	–	–	–	–
COc1cccc2c1C(=O)c1c(O)c3c(c(O)c1C2=O)C[C@@](O)(C(=O)CO)C[C@@H]3O[C@H]1C[C@H](N)[C@H](O)[C@H](C)O1 [doxorubicin, Doxorubicin]	–	–	–	4 to 10 nM	70 to 300 nM	–	–
gentamicin	–	–	–	–	–	10-20%	no increase
Oc1cccc(-c2nc3ccc4ccccc4c3c3c2CCC3)c1 [Cpd 4, 3-(2,3-dihydro-1H-benzo[f]cyclopenta[c]quinolin-4-yl)phenol]	*** (three stars indicate a greater than two-fold and up to three-fold increase in target mRNA)	*** (three stars indicate a greater than two-fold and up to three-fold increase in target mRNA)	** (two stars indicate a greater than one-fold and up to two-fold increase in target mRNA)	–	–	–	–
Nc1ccc(Sc2cc(Cl)nc(N)n2)cc1 [Cpd 1, 4-(4-aminophenylthio)-6-chloropyrimidin-2-amine]	** (two stars indicate a greater than one-fold and up to two-fold increase in target mRNA)	** (two stars indicate a greater than one-fold and up to two-fold increase in target mRNA)	** (two stars indicate a greater than one-fold and up to two-fold increase in target mRNA)	–	–	–	–
